Measured values from US10253355B2, “Instrument and system for rapid microorganism identification and antimicrobial agent susceptibility testing” (Accelerate Diagnostics, Inc., priority 2015, dated 2019).
Like-named read-outs stand apart in the source and are kept apart here.

Key:
[1] = system: Pseudomonas aeruginosa ATCC 27853; assay: AST QC assay on AD-1 instrument, QC isolate P. aeruginosa ATCC 27853; format: cell-based
Source text: (§1) The reportable range for the AST QC assay in some examples are adjusted such that the selected QC isolates have an MIC that is within the reportable range of the QC Assay. These extended ranges are only applied to QC testing and are not applied to AST assessment of patient samples. The process for assigning an MIC value to the QC organisms is the same or similar to that used for patient samples. […] This approach allows testing of, for example, CLSI recommended QC isolates without affecting the algorithms that are optimized around antimicrobial breakpoints. The algorithms used in ID QC or AST QC testing include those described above, for example, when the QC test samples are microbial isolates. For ID QC testing utilizing target microbial nucleic acids coupled to a bead, positive detection is achieved by comparing the cumulative count in the target (e.g., Green fluorescence channel) only against a threshold of objects that have brightness exceeding bead autofluorescence. Negative control detection is achieved by doing the same for eubacteria (e.g., Red fluorescence) channel only. For example, the number of bright red objects should not exceed a threshold in order to pass negative control.
(§2) The results of the identification assay drive antibiotic selection for antimicrobial susceptibility testing. The remaining samples undergo a pre-growth step to normalize growth rates during the approximately 1-hour FISH ID assay. The concentration of organisms in the purified inoculum was determined by repeating the quantitation process with a universal nucleic acid stain as previously described herein. […] Following cell immobilization, antimicrobial solutions in Mueller-Hinton agar were dispensed into the flowcells. Different antimicrobials were tested in separate flowcells, and only a single concentration of each antimicrobial was used. A growth control consisting of Mueller-Hinton agar without any antimicrobial was included for each run. A dark-field microscope and camera produced time-lapse images approximately every 10 minutes of progenitor cells growing into clones of daughter cells in each flowcell. The agar ensured daughter cells were immobilized and remained localized to each growing clone. Resistant clones grew while susceptible clones arrest or lyse over time (FIG. 90).
(§3) Custom image analysis software assigned unique spatial XY coordinates to individual progenitor cells (FIG. 91), allowing each growing clone across a series of time-lapse images to be identified. The intensity of each clone can be used as a metric of clone mass in each image. By measuring over time, this metric was used to generate growth curves for each individual clone (FIG. 92). The pattern of cell responses was used to determine the susceptibility of the overall population. Computer algorithms developed for each organism-antimicrobial combination convert microbial growth response into an MIC value using a mathematical regression model based on the response of isolates with known MICs for a single-concentration of a given antimicrobial. Once obtained, MIC values were interpreted using FDA, CLSI or EUCAST breakpoints along with expert rules to determine the categorical result (susceptible (S), intermediate (I) or resistant (R)). In addition to MICs, this technique was applied to phenotypic resistance mechanism detection.
(§4) In this example, the AST QC consumable insert consisted of 8 wells configured in a “pi” shape, as shown in the dark gray shading in FIG. 109. The AST QC panel was composed of seven CLSI recommended isolates that provide “on-scale” MIC results for all of the antimicrobial agents included in a sample blood culture test. A C. albicans isolate was used for Quality Control assessment of the […] component of the AD-1 Instrument System.
(§5) Table 9 below lists each organism and the corresponding antimicrobial agent that was tested in the AST QC assay. […]

[2] = system: Pseudomonas aeruginosa ATCC 27853; details: cited from earlier work; for Organism QC Range (MIC): AST QC panel (Table 9), CLSI recommended isolate P. aeruginosa ATCC 27853; for Expected (MIC acceptance range): P. aeruginosa ATCC 27853
[3] = system: Enterococcus faecalis ATCC 29212; assay: AST QC assay on AD-1 instrument, QC isolate E. faecalis ATCC 29212; format: cell-based; details: unit assumed
Source text: as §1, §2, §3, §4, §5

[4] = system: Enterococcus faecalis ATCC 29212; details: cited from earlier work; for Organism QC Range (MIC): AST QC panel (Table 9), CLSI recommended isolate E. faecalis ATCC 29212; for Expected (MIC acceptance range): E. faecalis ATCC 29212
[5] = system: Escherichia coli ATCC 25922; assay: AST QC assay on AD-1 instrument, QC isolate E. coli ATCC 25922; format: cell-based; details: unit assumed
Source text: as §1, §2, §3, §4, §5

[6] = system: Escherichia coli ATCC 25922; details: in µg/mL (unit assumed), cited from earlier work; for Organism QC Range (MIC): AST QC panel (Table 9), CLSI recommended isolate E. coli ATCC 25922; for Expected (MIC acceptance range): E. coli ATCC 25922
[7] = AST only report (Table 10), in µg/mL (unit assumed)
[8] = ID and AST report (Table 11), in µg/mL (unit assumed)

Row | Compound | Result (MIC value) ([1]; AST only report (Table 10)) [µg/mL] | Result (MIC value) ([1]; ID and AST report (Table 11)) [µg/mL] | Organism QC Range (MIC) ([2]; in µg/mL (unit assumed)) | Expected (MIC acceptance range) [2, 7] | Expected (MIC acceptance range) [2, 8] | Result (MIC value) ([3]; AST only report (Table 10)) [µg/mL] | also measured
1 | NCC[C@H](O)C(=O)N[C@@H]1C[C@H](N)[C@@H](O[C@H]2O[C@H](CN)[C@@H](O)[C@H](O)[C@H]2O)[C@H](O)[C@H]1O[C@H]1O[C@H](CO)[C@@H](O)[C@H](N)[C@H]1O [Amikacin] | 2 | 2 | 1-4 | 1-4 | 1-4 | – | –
2 | C[C@@H](O)[C@H]1C(=O)N2C(C(=O)O)=C(S[C@@H]3CN[C@H](C(=O)Nc4cccc(C(=O)O)c4)C3)[C@H](C)[C@H]12 [Ertapenem] | 4 | 4 | 2-8 | 2-8 | 2-8 | – | –
3 | CO/N=C(\C(=O)N[C@@H]1C(=O)N2C(C(=O)[O-])=C(C[N+]3(C)CCCC3)CS[C@H]12)c1csc(N)n1 [Cefepime] | 2 | 2 | 0.5-4 | – | – | – | Expected (MIC acceptance range) ([2]; AST only report (Table 10)): 0.5-4^; Expected (MIC acceptance range) ([2]; ID and AST report (Table 11)): 0.5-4^
4 | CCO/N=C(\C(=O)N[C@@H]1C(=O)N2C(C(=O)[O-])=C(Sc3nc(-c4cc[n+](C)cc4)cs3)CS[C@H]12)c1nsc(N)n1 [Ceftaroline] | – | – | – | – | – | 1 | Result (MIC value) ([3]; ID and AST report (Table 11)): 1 µg/mL
5 | CCCCCCCCCC(=O)N[C@@H](Cc1c[nH]c2ccccc12)C(=O)N[C@H](CC(N)=O)C(=O)N[C@@H](CC(=O)O)C(=O)N[C@@H]1C(=O)NCC(=O)N[C@@H](CCCN)C(=O)N[C@@H](CC(=O)O)C(=O)N[C@H](C)C(=O)N[C@@H](CC(=O)O)C(=O)NCC(=O)N[C@H](CO)C(=O)N[C@@H]([C@H](C)CC(=O)O)C(=O)N[C@@H](CC(=O)c2ccccc2N)C(=O)O[C@@H]1C [Daptomycin] | – | – | – | – | – | 2 | Result (MIC value) ([3]; ID and AST report (Table 11)): 2 µg/mL; Organism QC Range (MIC) ([4]; in µg/mL (unit assumed)): 1-4; Expected (MIC acceptance range) [4, 7]: 1-4; Expected (MIC acceptance range) [4, 8]: 1-4
6 | Cc1nnc(SCC2=C(C(=O)O)N3C(=O)[C@@H](NC(=O)Cn4cnnn4)[C@H]3SC2)s1 [Cefazolin] | – | – | – | – | – | – | Result (MIC value) ([5]; AST only report (Table 10)): 2 µg/mL; Organism QC Range (MIC) [6]: 1-4; Expected (MIC acceptance range) ([6]; AST only report (Table 10)): 1-4
7 | Colistin | 2 | 2 | 0.5-4 | – | – | – | Expected (MIC acceptance range) ([2]; AST only report (Table 10)): 0.5-4^; Expected (MIC acceptance range) ([2]; ID and AST report (Table 11)): 0.5-4^
8 | CN(C)c1ccc(O)c2c1C[C@H]1C[C@H]3[C@H](N(C)C)C(O)=C(C(N)=O)C(=O)[C@@]3(O)C(O)=C1C2=O [Minocycline] | – | – | – | – | – | – | Result (MIC value) ([5]; AST only report (Table 10)): 0.5 µg/mL; Result (MIC value) ([5]; ID and AST report (Table 11)): 0.5 µg/mL
9 | CO/N=C(\C(=O)N[C@@H]1C(=O)N2C(C(=O)O)=C(CSc3nc(=O)c(=O)[nH]n3C)CS[C@H]12)c1csc(N)n1 [Ceftriaxone] | – | – | – | – | – | – | Result (MIC value) ([5]; AST only report (Table 10)): 0.0525 µg/mL; Result (MIC value) ([5]; ID and AST report (Table 11)): 0.0525 µg/mL; Organism QC Range (MIC) [6]: 0.03-0.12; Expected (MIC acceptance range) ([6]; AST only report (Table 10)): 0.03-0.125; Expected (MIC acceptance range) ([6]; ID and AST report (Table 11)): 0.03-0.125
10 | C[C@@H](O)[C@H]1C(=O)N2C(C(=O)O)=C(S[C@@H]3CN[C@H](C(=O)N(C)C)C3)[C@H](C)[C@H]12 [Meropenem] | 0.5 | 0.5 | 0.25-1 | 0.25-1 | 0.25-1 | – | –
11 | NC[C@H]1O[C@H](O[C@H]2[C@H](O)[C@@H](O[C@H]3O[C@H](CO)[C@@H](O)[C@H](N)[C@H]3O)[C@H](N)C[C@@H]2N)[C@H](N)C[C@@H]1O [Tobramycin] | 0.5 | 0.5 | 0.25-1 | 0.25-1 | 0.25-1 | – | –
12 | O=C(O)c1cn(C2CC2)c2cc(N3CCNCC3)c(F)cc2c1=O [Ciprofloxacin] | 0.5 | 0.5 | – | 0.25-1 | 0.25-1 | – | –
13 | CC(C)(O/N=C(\C(=O)N[C@@H]1C(=O)N2C(C(=O)[O-])=C(C[n+]3ccccc3)CS[C@H]12)c1csc(N)n1)C(=O)O [Ceftazidime] | – | – | – | – | – | – | Result (MIC value) ([5]; AST only report (Table 10)): 0.25 µg/mL; Result (MIC value) ([5]; ID and AST report (Table 11)): 0.25 µg/mL; Organism QC Range (MIC) [6]: 1-4; Expected (MIC acceptance range) ([6]; AST only report (Table 10)): 0.06-0.5; Expected (MIC acceptance range) ([6]; ID and AST report (Table 11)): 0.06-0.5
14 | CC1(C)S[C@@H]2[C@H](NC(=O)[C@H](N)c3ccccc3)C(=O)N2[C@H]1C(=O)O [Ampicillin] | – | – | – | – | – | 1 | Organism QC Range (MIC) ([4]; in µg/mL (unit assumed)): 0.5-2; Expected (MIC acceptance range) ([4]; AST only report (Table 10)): 0.5-2^
15 | CN[C@H](CC(C)C)C(=O)N[C@H]1C(=O)N[C@@H](CC(N)=O)C(=O)N[C@H]2C(=O)N[C@H]3C(=O)N[C@H](C(=O)N[C@H](C(=O)O)c4cc(O)cc(O)c4-c4cc3ccc4O)[C@H](O)c3ccc(c(Cl)c3)Oc3cc2cc(c3O[C@@H]2O[C@H](CO)[C@@H](O)[C@H](O)[C@H]2O[C@H]2C[C@](C)(N)[C@H](O)[C@H](C)O2)Oc2ccc(cc2Cl)[C@H]1O [Vancomycin] | – | – | – | – | – | 2 | Result (MIC value) ([3]; ID and AST report (Table 11)): 2 µg/mL; Organism QC Range (MIC) ([4]; in µg/mL (unit assumed)): 0.5-2; Expected (MIC acceptance range) [4, 7]: 1-4; Expected (MIC acceptance range) [4, 8]: 1-4
16 | Gentamicin | 1 | 1 | 0.5-2 | – | – | – | Expected (MIC acceptance range) ([2]; AST only report (Table 10)): 0.5-2^; Expected (MIC acceptance range) ([2]; ID and AST report (Table 11)): 0.5-2^
17 | C[C@H]1c2cccc(O)c2C(=O)C2=C(O)[C@]3(O)C(=O)C(C(N)=O)=C(O)[C@@H](N(C)C)[C@@H]3[C@@H](O)[C@@H]21 [Doxycycline] | – | – | – | – | – | 4 | Result (MIC value) ([3]; ID and AST report (Table 11)): 4 µg/mL
18 | C[C@H]1[C@H](NC(=O)/C(=N\OC(C)(C)C(=O)O)c2csc(N)n2)C(=O)N1S(=O)(=O)O [Aztreonam] | 4 | 4 | 2-8 | 2-8 | 2-8 | – | –
19 | CC(=O)NC[C@H]1CN(c2ccc(N3CCOCC3)c(F)c2)C(=O)O1 [Linezolid] | – | – | – | – | – | 2 | Result (MIC value) ([3]; ID and AST report (Table 11)): 2 µg/mL; Organism QC Range (MIC) ([4]; in µg/mL (unit assumed)): 1-4; Expected (MIC acceptance range) [4, 7]: 1-4; Expected (MIC acceptance range) [4, 8]: 1-4
